Source: patent US10473666B2, “Dye compounds” (SFC CO., LTD., priority 2015, dated 2019)

Key:
[1] = Absorption spectra, emission spectra, molar extinction coefficients and quantum yields of the dye compounds; format: physicochemical
HeLa A431 cells = assay: Photostability: fluorescence intensity over time in stained HeLa A431 cells; format: cell-based; settings: HeLa A431 cells stained with 1.0 μM dye
Protocol: The fluorescence intensities of three areas A, B, and C of HeLa A431 cells stained with the compound of Formula 110 (1.0 μM) were measured at 2-sec intervals for 3500 sec.
The fluorescence intensities of four areas A, B, C, and D of HeLa A431 cells stained with the compound of Formula 98 (1.0 μM) were measured at 2-sec intervals for 3500 sec.
The fluorescence intensities of two areas A and B of HeLa A431 cells stained with Cy3B (1.0 μM) were measured at intervals of 2 s for 2000 s.

[2] = Absorption spectra, emission spectra, molar extinction coefficients and quantum yields of the dye compounds; format: physicochemical; settings: Table 1; solvent DMSO
Protocol: Absorption spectra (λabs), emission spectra (λem), molar extinction coefficients (ε), and quantum yields of the compounds of Formulae 1-7 were measured and the results are shown in Table 1.
Absorption spectra (λabs), emission spectra (λem), molar extinction coefficients, and quantum yields of the compounds of Formulae 44-53 were measured and the results are shown in Table 4.
The products of the two factors (molar extinction coefficient×fluorescence quantum yield) for the inventive dye compounds were much greater than that for the comparative compound.

CC[N+]1=C(/C=C/C=C2/N(CCCCCC(=O)O)c3ccccc3C2(C)C)C(C)(C)c2ccccc21 [Comparative, reference compound]
Q.Y. (quantum yield) ([1]; Table 1, solvent not given): 0.04
ε (molar extinction coefficient) ([1]; Table 1, solvent not given): 150,000 M^−1cm^−1
λabs ([1]; Table 1, solvent not given): 548 nm
λem ([1]; Table 1, solvent not given): 562 nm
Quantum yield ([1]; Table 4, solvent not given): 0.04
ε (molar extinction coefficient) ([1]; Table 4, solvent not given): 150,000 M^−1cm^−1
λabs ([1]; Table 4, solvent not given): 548 nm
λem ([1]; Table 4, solvent not given): 562 nm
Quantum yield ([1]; Table 6, solvent not given): 0.04
ε (molar extinction coefficient) ([1]; Table 6, solvent not given): 150,000 M^−1cm^−1
λabs ([1]; Table 6, solvent not given): 548 nm
λem ([1]; Table 6, solvent not given): 562 nm

CC1(C)C2=C3C=C4C5=[N+](CCC4OC3CCN2c2ccccc21)c1ccccc1C5(C)C (centres unmarked) [Cy3B, reference compound]
photostability (HeLa A431 cells): poor photostability
change of fluorescence intensity over time (HeLa A431 cells; measured at intervals of 2 s for 2000 s): greatly reduced for 1500 s

CC1(CCCCCC(=O)O)C2=[N+](CCC3Oc4c(cc5c6c4CCCN6CCC5)C=C23)c2ccccc21 (centres unmarked) [Formula 2]
Q.Y. (quantum yield) [2]: 0.94
λabs [2]: 597 nm
ε (molar extinction coefficient) ([1]; Table 1, solvent DMSO): 71,500 M^−1cm^−1
λem ([1]; Table 1, solvent DMSO): 623 nm

CN(CCCCCC(=O)O)c1ccc2c(c1)OC1CC[N+]3=C(C1=C2)C(C)(C)c1cc(S(=O)(=O)CC(S(=O)(=O)[O-])S(=O)(=O)O)ccc13 (centres unmarked) [Formula 4]
Q.Y. (quantum yield) [2]: 0.81
λabs [2]: 584 nm
ε (molar extinction coefficient) ([1]; Table 1, solvent DMSO): 76,000 M^−1cm^−1
λem ([1]; Table 1, solvent DMSO): 614 nm

CC1(C)C2=[N+](CCC3Oc4cc5c(cc4C=C23)C(CS(=O)(=O)O)=CC(C)(C)N5CCCCCC(=O)O)c2ccc(S(=O)(=O)[O-])cc21 (centres unmarked) [Formula 5]
Q.Y. (quantum yield) [2]: 0.56
λabs [2]: 617 nm
ε (molar extinction coefficient) ([1]; Table 1, solvent DMSO): 65,000 M^−1cm^−1
λem ([1]; Table 1, solvent DMSO): 659 nm

CC1(C)CCN(CCCCCC(=O)O)c2ccc3c(c21)OC1CC[N+]2=C(C1=C3)C(C)(C)c1ccccc12 (centres unmarked) [Formula 6]
Q.Y. (quantum yield) [2]: 0.72
λabs [2]: 579 nm
ε (molar extinction coefficient) ([1]; Table 1, solvent DMSO): 12,800 M^−1cm^−1
λem ([1]; Table 1, solvent DMSO): 612 nm

CC1(C)CCN(CCCCCC(=O)O)c2cc3c(cc21)C=C1C2=[N+](CCC1O3)c1ccccc1C2(C)C (centres unmarked) [Formula 7]
Q.Y. (quantum yield) [2]: 1.00
λabs [2]: 584 nm
ε (molar extinction coefficient) ([1]; Table 1, solvent DMSO): 60,000 M^−1cm^−1
λem ([1]; Table 1, solvent DMSO): 615 nm

CC1(C)C2=C3C=C4C=C(c5nc6ccc(C(=O)O)cc6s5)C(=O)C=C4OC3CCN2c2ccccc21 (centres unmarked) [Formula 51]
Quantum yield ([1]; Table 4, solvent DMSO): 0.75
ε (molar extinction coefficient) ([1]; Table 4, solvent DMSO): 78,800 M^−1cm^−1
λabs ([1]; Table 4, solvent DMSO): 595 nm
λem ([1]; Table 4, solvent DMSO): 621 nm

CC1(C)C2=C3C=C4C=CC(=O)C=C4OC3CCN2c2ccc(CC(=O)O)cc21 (centres unmarked) [Formula 52]
Quantum yield ([1]; Table 4, solvent PBS): 0.61
λabs ([1]; Table 4, solvent PBS): 541 nm
λem ([1]; Table 4, solvent PBS): 564 nm
